In ChEMBL document CHEMBL1201862, “PubChem BioAssay data set” (2004):
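Exposure lasted 48 hours, with cells grown in 96-well plates and compounds tested at five concentrations. At the GI50, growth is halved.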 Activity calls are given as the source filed them. No stated cut-off is given here; in the data, active = GI50 up to about 1.1 µM and inactive = higher.

Assays:
Assay in all cases: inhibition of tumour cell growth, NCI panel, 48 h
SF-295 = test system: SF-295
MDA-MB-231 = test system: MDA-MB-231
NCI-H522 = test system: NCI-H522
CCRF-CEM = test system: CCRF-CEM
U-251 = test system: U-251
SK-OV-3 = test system: SK-OV-3
MOLT-4 = test system: MOLT-4
SN12C = test system: SN12C
EKVX = test system: EKVX
SK-MEL-2 = test system: SK-MEL-2
RPMI-8226 = test system: RPMI-8226
UO-31 = test system: UO-31
SW-620 = test system: SW-620
Malme-3M = test system: Malme-3M
COLO 205 = test system: COLO 205
MDA-MB-435 = test system: MDA-MB-435
RXF 393 = test system: RXF 393
SNB-19 = test system: SNB-19
HOP-92 = test system: HOP-92

Structure (SMILES)	GI50 (SF-295)	GI50 (MDA-MB-231)	GI50 (NCI-H522)	GI50 (CCRF-CEM)	GI50 (U-251)	GI50 (SK-OV-3)	GI50 (MOLT-4)	GI50 (SN12C)	GI50 (EKVX)	GI50 (SK-MEL-2)	GI50 (RPMI-8226)	GI50 (UO-31)	GI50 (SW-620)	GI50 (Malme-3M)	GI50 (COLO 205)	GI50 (MDA-MB-435)	GI50 (RXF 393)	GI50 (SNB-19)	GI50 (HOP-92)
CSC1=N/C(=C\c2ccc(Cl)cc2)C(=O)N1CN1CCCCC1	35.5 µM (inactive)	42.1 µM (inactive)	27.4 µM (inactive)	26.5 µM (inactive)	47.8 µM (inactive)	35.1 µM (inactive)	62.7 µM (inactive)	67.5 µM (inactive)	16.6 µM (inactive)	67.5 µM (inactive)	37.4 µM (inactive)	23.6 µM (inactive)	34.9 µM (inactive)	25.5 µM (inactive)	60.1 µM (inactive)	35.9 µM (inactive)			
CC1(C)N(OC2CCCCO2)C(c2ccccc2)C(c2ccccc2)=[N+]1[O-] (stereo not given)	41 µM (inactive)	> 100 µM (inactive)		60.5 µM (inactive)	> 100 µM (inactive)	> 100 µM (inactive)	30 µM (inactive)	> 100 µM (inactive)	> 100 µM (inactive)	51.1 µM (inactive)		59.8 µM (inactive)	> 100 µM (inactive)	> 100 µM (inactive)	> 100 µM (inactive)		47.5 µM (inactive)	> 100 µM (inactive)	> 100 µM (inactive)
S=C(NCCc1ccccn1)N/N=C/c1ccccn1	0.964 µM (active)	< 0.01 µM (active)	< 0.01 µM (active)	< 0.01 µM (active)		1.12 µM (active)	< 0.0108 µM (active)	1.11 µM (active)	0.0243 µM (active)	0.0457 µM (active)	< 0.01 µM (active)		< 0.01 µM (active)	2.62 µM (inactive)	< 0.01 µM (active)	4.09 µM (inactive)		2.28 µM (inactive)	
COc1ccc(C2C(Cl)C(=O)N2NC(=O)c2ccc(NC(C)=O)cc2)cc1 (stereo not given)	> 100 µM (inactive)		> 100 µM (inactive)	> 100 µM (inactive)	> 100 µM (inactive)	> 100 µM (inactive)	> 100 µM (inactive)	> 100 µM (inactive)	> 100 µM (inactive)	> 100 µM (inactive)		> 100 µM (inactive)	> 100 µM (inactive)	> 100 µM (inactive)	> 100 µM (inactive)		> 100 µM (inactive)	> 100 µM (inactive)	> 100 µM (inactive)
CCCCCCCCCCCCCCCCNC(=O)/C(O)=C/C(=O)c1ccc(C)cc1	> 10 µM (inactive)	> 10 µM (inactive)	> 10 µM (inactive)	> 10 µM (inactive)	> 10 µM (inactive)	> 10 µM (inactive)	> 10 µM (inactive)	> 10 µM (inactive)	> 10 µM (inactive)	> 10 µM (inactive)	> 10 µM (inactive)	> 10 µM (inactive)	> 10 µM (inactive)	> 10 µM (inactive)	> 10 µM (inactive)	> 10 µM (inactive)	> 10 µM (inactive)		
CCOC(=O)c1c(NC(=O)c2ccc(OC)cc2)sc2c1CCCC2	> 100 µM (inactive)	> 100 µM (inactive)		> 100 µM (inactive)	> 100 µM (inactive)		> 100 µM (inactive)	> 100 µM (inactive)	> 100 µM (inactive)	> 100 µM (inactive)	> 100 µM (inactive)	> 100 µM (inactive)	> 100 µM (inactive)		> 100 µM (inactive)	> 100 µM (inactive)	> 100 µM (inactive)	> 100 µM (inactive)	
CN(C)CCCn1cnc2cc(Cl)c(Cl)cc21	> 100 µM (inactive)	> 100 µM (inactive)	> 100 µM (inactive)	55.7 µM (inactive)	> 100 µM (inactive)	> 100 µM (inactive)		43.8 µM (inactive)	> 100 µM (inactive)	> 100 µM (inactive)	38.4 µM (inactive)	70 µM (inactive)	> 100 µM (inactive)	> 100 µM (inactive)	79.3 µM (inactive)	55.8 µM (inactive)	61.2 µM (inactive)	> 100 µM (inactive)	
COc1cc2nc(-c3ccccc3F)nc(O)c2cc1OC	> 100 µM (inactive)	> 100 µM (inactive)	89.5 µM (inactive)	> 100 µM (inactive)		> 100 µM (inactive)	70.3 µM (inactive)	> 100 µM (inactive)	> 100 µM (inactive)	> 100 µM (inactive)	> 100 µM (inactive)	63.2 µM (inactive)		> 100 µM (inactive)	> 100 µM (inactive)		> 100 µM (inactive)	63.8 µM (inactive)	> 100 µM (inactive)
CC(=O)OCC1OC(SC2=N/C(=C\c3ccc(Br)s3)C(=O)N2CN2CCOCC2)C(OC(C)=O)C(OC(C)=O)C1OC(C)=O (stereo not given)	19.5 µM (inactive)	26.7 µM (inactive)	6.87 µM (inactive)		16.3 µM (inactive)		20 µM (inactive)	13.6 µM (inactive)	8.22 µM (inactive)	0.383 µM (active)	5.97 µM (inactive)	15.5 µM (inactive)	14.9 µM (inactive)	16.5 µM (inactive)	18.8 µM (inactive)	23.8 µM (inactive)		19.9 µM (inactive)	
C[C@]12CCc3nonc3C1CC[C@@H]1C2CC[C@]2(C)NC(=O)CCC12 (stereo not given in full)	> 100 µM (inactive)		> 100 µM (inactive)	> 100 µM (inactive)	> 100 µM (inactive)	> 100 µM (inactive)	> 100 µM (inactive)	> 100 µM (inactive)	> 100 µM (inactive)	> 100 µM (inactive)	> 100 µM (inactive)	> 100 µM (inactive)	> 100 µM (inactive)	> 100 µM (inactive)	> 100 µM (inactive)		> 100 µM (inactive)	> 100 µM (inactive)	> 100 µM (inactive)
S=C1CSc2c(ccc3ccccc23)N1	> 100 µM (inactive)	> 100 µM (inactive)	> 100 µM (inactive)	> 100 µM (inactive)	> 100 µM (inactive)	> 100 µM (inactive)	9.98 µM (inactive)	> 100 µM (inactive)	21.7 µM (inactive)		> 100 µM (inactive)	> 100 µM (inactive)		> 100 µM (inactive)	> 100 µM (inactive)	> 100 µM (inactive)	35.9 µM (inactive)	> 100 µM (inactive)	
Cc1cccc(C(C)(C)C)c1NC(=O)CC1C(=O)Nc2ccccc2S1(=O)=O (stereo not given)	7.1 µM (inactive)			2.34 µM (inactive)	8.28 µM (inactive)		2.28 µM (inactive)	12.3 µM (inactive)	2.87 µM (inactive)	9.12 µM (inactive)	3.24 µM (inactive)	11.2 µM (inactive)	10.4 µM (inactive)	11.8 µM (inactive)			13.4 µM (inactive)	15.5 µM (inactive)	11.5 µM (inactive)
COc1ccc(C2S/C(=C\c3ccccc3)C(=O)N2NC(=O)Cc2ccccc2)cc1 (stereo not given)	> 100 µM (inactive)		> 100 µM (inactive)	49.3 µM (inactive)	> 100 µM (inactive)	> 100 µM (inactive)	> 100 µM (inactive)	> 100 µM (inactive)		> 100 µM (inactive)	> 100 µM (inactive)	> 100 µM (inactive)	> 100 µM (inactive)	> 100 µM (inactive)	> 100 µM (inactive)		> 100 µM (inactive)		> 100 µM (inactive)
